Laboratory results reported in PMC7366829 (Acta biomaterialia, 2020).

Tests used:
[1] = biological target: MelBSt (Salmonella enterica, UniProt P30878); assay: Trp to D2G FRET; type: binding; conditions: 10 μM D2G; 23 °C; DDM or GNG-3,14 extract; active site
[2] = biological target: MelBEc (Escherichia coli, UniProt P02921); assay: Trp to D2G FRET; type: binding; conditions: 10 μM D2G; 23 °C; GNG-3,14 extract; active site
[3] = biological target: β2AR (Homo sapiens, UniProt P07550); assay: radioligand binding, G-50 column; conditions: 10 nM [3H]-DHA; pH 7.5; 100 mM NaCl; room temperature; antagonist; labelled compound
β2AR, sequence (P07550 whole entry): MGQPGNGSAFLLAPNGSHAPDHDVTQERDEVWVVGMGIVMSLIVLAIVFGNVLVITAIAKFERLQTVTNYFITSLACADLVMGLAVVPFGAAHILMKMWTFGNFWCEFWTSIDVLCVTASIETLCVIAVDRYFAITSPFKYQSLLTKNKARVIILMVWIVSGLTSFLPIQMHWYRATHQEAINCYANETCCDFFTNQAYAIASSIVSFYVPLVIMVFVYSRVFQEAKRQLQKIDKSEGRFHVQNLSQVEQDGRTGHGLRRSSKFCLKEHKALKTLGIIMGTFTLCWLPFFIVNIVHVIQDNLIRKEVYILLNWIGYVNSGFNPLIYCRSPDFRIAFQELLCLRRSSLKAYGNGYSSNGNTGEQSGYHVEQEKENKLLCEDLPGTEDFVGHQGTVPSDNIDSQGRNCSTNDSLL

MelBSt, sequence (P30878 whole entry): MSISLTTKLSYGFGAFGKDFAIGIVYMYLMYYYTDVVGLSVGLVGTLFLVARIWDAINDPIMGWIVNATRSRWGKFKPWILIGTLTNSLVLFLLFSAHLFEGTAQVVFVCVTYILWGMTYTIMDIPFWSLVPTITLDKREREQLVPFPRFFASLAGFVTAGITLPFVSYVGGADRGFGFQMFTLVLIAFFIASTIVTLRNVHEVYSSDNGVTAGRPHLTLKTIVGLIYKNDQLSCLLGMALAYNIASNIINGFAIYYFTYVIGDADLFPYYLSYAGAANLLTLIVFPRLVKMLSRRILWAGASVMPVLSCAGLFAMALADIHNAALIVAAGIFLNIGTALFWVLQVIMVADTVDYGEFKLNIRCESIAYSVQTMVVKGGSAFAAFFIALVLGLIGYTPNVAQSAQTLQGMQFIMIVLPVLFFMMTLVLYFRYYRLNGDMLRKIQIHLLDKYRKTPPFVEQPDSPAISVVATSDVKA
MelBEc, sequence (P02921 2-473): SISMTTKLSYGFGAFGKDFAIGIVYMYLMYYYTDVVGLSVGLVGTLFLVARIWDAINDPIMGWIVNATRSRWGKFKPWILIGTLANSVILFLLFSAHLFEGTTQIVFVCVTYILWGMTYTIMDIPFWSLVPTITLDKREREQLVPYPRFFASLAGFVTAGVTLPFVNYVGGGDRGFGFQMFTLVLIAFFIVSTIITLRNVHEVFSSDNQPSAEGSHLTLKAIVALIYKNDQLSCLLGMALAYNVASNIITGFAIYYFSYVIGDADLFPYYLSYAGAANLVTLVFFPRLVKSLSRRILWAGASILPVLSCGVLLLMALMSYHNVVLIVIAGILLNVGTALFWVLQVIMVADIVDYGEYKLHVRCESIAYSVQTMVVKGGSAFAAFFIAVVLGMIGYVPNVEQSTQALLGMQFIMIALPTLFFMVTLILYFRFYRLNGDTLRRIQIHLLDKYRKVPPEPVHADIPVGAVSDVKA

`CN(C)c1cccc2c(S(=O)(=O)NCCS[C@@H]3O[C@H](CO)[C@H](O)[C@H](O)[C@H]3O)cccc12` [D2G, 2’-(N-Dansyl)aminoalkyl-1-thio-β-D-galactopyranoside] was tested, and the “Trp to D2G FRET” value [1] was “DDM or GNG-3,14-extracted MelBSt responded to addition of D^2G and melibiose” and the “Trp to D2G FRET” value [2] was “GNG-3,14-extracted MelBEc was functional under the same conditions”.

With `CCCc1ccccc1OCC(O)CNC(C)C` (stereo not drawn) [[3H]-dihydroalprenolol] the “radioligand binding, G-50 column” value [3] was “ligand binding assay using a radio-active antagonist ([^3H]-DHA)”.
